Key:
[1] = biological target: T1, Mitogen-activated protein kinase kinase kinase kinase 2 (Homo sapiens) (UniProt Q12851); test: Inhibition of MAP4K2 Lys1 labeling site in human Huh-7 cell lysate at 1 uM by KiNativ Profiling analysis relative to control; type: subcellular
T1 sequence (whole entry): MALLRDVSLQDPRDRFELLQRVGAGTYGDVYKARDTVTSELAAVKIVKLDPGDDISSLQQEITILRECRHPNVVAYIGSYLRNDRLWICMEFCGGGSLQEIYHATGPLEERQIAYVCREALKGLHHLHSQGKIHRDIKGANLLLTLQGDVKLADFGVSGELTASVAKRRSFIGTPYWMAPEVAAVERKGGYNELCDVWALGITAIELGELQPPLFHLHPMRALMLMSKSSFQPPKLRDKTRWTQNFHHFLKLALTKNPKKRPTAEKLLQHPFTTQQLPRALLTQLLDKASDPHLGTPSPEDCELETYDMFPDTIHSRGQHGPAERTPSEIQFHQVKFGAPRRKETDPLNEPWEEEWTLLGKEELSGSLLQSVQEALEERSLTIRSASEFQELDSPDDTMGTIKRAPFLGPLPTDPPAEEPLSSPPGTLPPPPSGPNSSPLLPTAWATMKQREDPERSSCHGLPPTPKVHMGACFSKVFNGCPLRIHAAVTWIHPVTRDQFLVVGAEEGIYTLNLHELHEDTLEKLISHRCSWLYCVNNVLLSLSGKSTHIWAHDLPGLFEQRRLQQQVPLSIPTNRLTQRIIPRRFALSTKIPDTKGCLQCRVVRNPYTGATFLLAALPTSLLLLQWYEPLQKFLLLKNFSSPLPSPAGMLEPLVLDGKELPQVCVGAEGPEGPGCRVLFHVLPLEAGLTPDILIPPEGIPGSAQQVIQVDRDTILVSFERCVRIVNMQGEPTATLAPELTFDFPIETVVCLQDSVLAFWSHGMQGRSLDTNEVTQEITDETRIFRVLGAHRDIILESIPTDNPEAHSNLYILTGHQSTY

[2] = biological target: T2, Mitogen-activated protein kinase kinase kinase 2 (Homo sapiens) (UniProt Q9Y2U5); test: Inhibition of MAP3K2 Lys1 labeling site harbouring VYLCYDVDTGRELAVKQVQFDPDSPETSKEVNALECEIQLLK in human A-375 cells at 5 uM by KiNativ Profiling analysis relative to control; type: cell-based
T2 sequence (whole entry): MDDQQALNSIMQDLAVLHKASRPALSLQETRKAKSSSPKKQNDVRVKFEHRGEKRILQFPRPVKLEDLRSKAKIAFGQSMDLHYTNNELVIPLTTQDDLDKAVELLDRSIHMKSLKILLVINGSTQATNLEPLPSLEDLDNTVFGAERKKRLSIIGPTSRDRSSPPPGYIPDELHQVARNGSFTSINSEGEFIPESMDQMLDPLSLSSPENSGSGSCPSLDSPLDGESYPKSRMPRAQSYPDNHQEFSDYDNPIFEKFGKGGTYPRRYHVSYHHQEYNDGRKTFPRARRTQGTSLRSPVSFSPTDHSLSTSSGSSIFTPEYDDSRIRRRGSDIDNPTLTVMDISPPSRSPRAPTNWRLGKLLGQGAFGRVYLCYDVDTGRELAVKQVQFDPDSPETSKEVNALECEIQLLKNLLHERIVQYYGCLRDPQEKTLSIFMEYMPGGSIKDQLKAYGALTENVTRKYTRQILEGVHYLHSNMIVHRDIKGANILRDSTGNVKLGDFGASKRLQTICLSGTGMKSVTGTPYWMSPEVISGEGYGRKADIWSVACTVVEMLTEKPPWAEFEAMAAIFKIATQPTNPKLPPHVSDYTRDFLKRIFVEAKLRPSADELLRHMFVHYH

[3] = biological target: Mitogen-activated protein kinase 8 (Homo sapiens, UniProt P45983); test: Inhibition of JNK1 (unknown origin) Lys2 labeling site by KiNativ Profiling analysis
Mitogen-activated protein kinase 8, sequence (P45983 whole entry): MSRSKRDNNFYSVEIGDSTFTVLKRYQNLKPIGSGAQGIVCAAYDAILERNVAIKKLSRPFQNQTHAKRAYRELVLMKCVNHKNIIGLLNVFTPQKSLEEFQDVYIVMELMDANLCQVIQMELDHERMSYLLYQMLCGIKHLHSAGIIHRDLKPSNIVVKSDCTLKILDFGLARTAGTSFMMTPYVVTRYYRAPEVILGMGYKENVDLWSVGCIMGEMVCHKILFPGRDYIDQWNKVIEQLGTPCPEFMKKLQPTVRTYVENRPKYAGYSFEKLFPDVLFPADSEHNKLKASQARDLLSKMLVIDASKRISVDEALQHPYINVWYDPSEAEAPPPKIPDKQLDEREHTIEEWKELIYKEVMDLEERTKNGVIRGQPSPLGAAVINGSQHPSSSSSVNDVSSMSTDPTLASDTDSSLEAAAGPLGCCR

[4] = biological target: T3, Serine/threonine-protein kinase 3 (Homo sapiens) (UniProt Q13188); test: Inhibition of MST2 Lys2 labeling site harbouring DIKAGNILLNTEGHAK in human A-375 cells at 0.05 uM by KiNativ Profiling analysis relative to control; type: cell-based
T3 sequence (whole entry): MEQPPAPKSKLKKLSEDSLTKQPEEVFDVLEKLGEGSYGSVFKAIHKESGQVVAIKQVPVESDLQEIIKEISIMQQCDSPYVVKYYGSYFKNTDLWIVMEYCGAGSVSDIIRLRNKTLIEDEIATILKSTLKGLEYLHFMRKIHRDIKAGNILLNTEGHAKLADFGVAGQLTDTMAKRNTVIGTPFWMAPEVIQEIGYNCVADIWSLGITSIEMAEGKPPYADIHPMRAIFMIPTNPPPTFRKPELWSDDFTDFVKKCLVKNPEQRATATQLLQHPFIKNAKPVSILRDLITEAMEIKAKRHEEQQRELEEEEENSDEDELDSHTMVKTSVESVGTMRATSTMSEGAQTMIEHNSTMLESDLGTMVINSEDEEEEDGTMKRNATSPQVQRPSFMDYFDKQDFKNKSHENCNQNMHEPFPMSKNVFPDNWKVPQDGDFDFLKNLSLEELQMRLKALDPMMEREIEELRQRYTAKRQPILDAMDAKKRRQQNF

[5] = biological target: T4, Serine/threonine-protein kinase Nek8 (Homo sapiens) (UniProt Q86SG6); test: Inhibition of NEK8 Lys2 labeling site in human A-375 cells at 0.05 uM by KiNativ Profiling analysis relative to control; type: cell-based
T4 sequence (whole entry): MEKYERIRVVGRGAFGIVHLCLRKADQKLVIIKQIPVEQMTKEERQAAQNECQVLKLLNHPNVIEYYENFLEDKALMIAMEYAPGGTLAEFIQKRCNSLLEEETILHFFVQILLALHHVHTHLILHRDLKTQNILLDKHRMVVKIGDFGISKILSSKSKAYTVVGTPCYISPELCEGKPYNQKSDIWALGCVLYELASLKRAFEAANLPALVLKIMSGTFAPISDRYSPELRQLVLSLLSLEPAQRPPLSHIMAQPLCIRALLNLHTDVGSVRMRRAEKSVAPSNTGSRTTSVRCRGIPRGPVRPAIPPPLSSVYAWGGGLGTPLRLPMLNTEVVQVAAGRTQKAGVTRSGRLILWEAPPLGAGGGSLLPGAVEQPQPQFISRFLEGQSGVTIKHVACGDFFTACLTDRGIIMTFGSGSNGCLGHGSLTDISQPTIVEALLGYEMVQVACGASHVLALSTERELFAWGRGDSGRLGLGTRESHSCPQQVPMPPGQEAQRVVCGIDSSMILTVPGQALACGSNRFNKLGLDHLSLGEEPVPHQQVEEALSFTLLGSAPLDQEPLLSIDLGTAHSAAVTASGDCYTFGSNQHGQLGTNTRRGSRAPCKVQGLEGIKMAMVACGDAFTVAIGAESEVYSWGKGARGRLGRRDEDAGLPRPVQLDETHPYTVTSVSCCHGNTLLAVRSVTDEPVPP

Structure (SMILES) | inhibition [1] | inhibition [2] | IC50 [3] | inhibition [4] | inhibition [5]
CNc1cc(Oc2cc(C(=O)Nc3cc(-n4cnc(C)c4)cc(C(F)(F)F)c3)ccc2C)ncn1 | 79.7% | – | – | – | –
CNc1cc(Oc2cc(C(=O)Nc3cc(N4CCN(C)CC4)cc(C(F)(F)F)c3)ccc2C)ncn1 | 85.3% | – | – | – | –
CCN1CCN(Cc2ccc(NC(=O)c3ccc(C)c(Oc4ccnc5[nH]ccc45)c3)cc2C(F)(F)F)CC1 | – | 42.3% | > 10 µM | 4.7% | -1.6%
CCN1CCN(Cc2ccc(NC(=O)c3ccc(C)c(/C=C/c4cnc5[nH]ccc5c4OC)c3)cc2C(F)(F)F)CC1 | – | 55.5% | > 10 µM | -7% | -9.3%
